# Measured values reported in patent EP4745137A1 (Gluetacs Therapeutics (Shanghai) Co., Ltd., priority 2023, dated 2025).
# What was measured:
# Jurkat = assay: Tumor cell proliferation inhibition (CellTiter-Meiluncell Luminescent Cell Viability Assay), Jurkat; settings: Homo sapiens, 96 h, read-out: inhibitory activity (IC50, nM) against tumor cells proliferation, Jurkat
# Procedure: (§1) The tumor cells used herein were cultured in a cell culture medium listed in table 2 at 37°C in an incubator with 5% CO2. Prior to experimentation, all cell lines used were correctly identified by STR profiling, and tested negative for mycoplasma contamination using a mycoplasma detection kit through routine screenings.
# (§2) On the following day, the test compounds of the present disclosure were subjected to serial dilution. […] Subsequently, 0.5 µL of the test compound dilution was transferred into the 96-well plate containing the cells, with each well containing 100 µL of cell culture medium. […] Into the 96-well plate, the diluted test compounds and corresponding detection reagents were added, resulting in final test compound concentrations of 500 nM and 10 nM, respectively. The experimental procedure is described below using the diluted 2 µM test compound as an example.
# (§3) After the cells were treated with the compounds of the present disclosure for a specified period (the treatment durations were shown in Table 3), the cell viability assay reagent was added to the culture medium according to the kit's instructions to determine cell viability. […] All controls were treated using the same procedure as the compounds of the present disclosure. The growth inhibition curves for the compounds of the present disclosure were plotted using Prism GraphPad software, and the IC50 values were calculated therefrom.
# GSPT1 = target: T1, GSPT1 (Homo sapiens, UniProt P15170+Q96SW2); assay: Western-blot assay of substrate protein degradation in hPBMCs, GSPT1; format: cell-based; settings: 24 hours of compound treatment, compounds tested at 50 nM and 500 nM (concentration of the table not stated)
# T1 construct: endogenous in cells; host or cells: hPBMCs (Milecell Biotechnologies)
# [1] = target: T2, human Cereblon WT GST-tagged protein (Homo sapiens, UniProt Q96SW2); assay: CRBN-binding affinity by HTRF (CEREBLON BINDING kit); settings: HTRF inhibitory activity, CEREBLON BINDING kit; read-out: HTRF IC50
# T2 construct: purchased CISBIO 64BDCRBNPEH
# IKZF2 = target: T3, IKZF2 (Homo sapiens, UniProt Q96SW2+Q9UKS7); assay: Western-blot assay of substrate protein degradation in hPBMCs, IKZF2; format: cell-based; settings: 24 hours of compound treatment, compounds tested at 50 nM and 500 nM (concentration of the table not stated)
# T3 construct: endogenous in cells; host or cells: hPBMCs (Milecell Biotechnologies)
# IKZF3 = target: T4, IKZF3 (Homo sapiens, UniProt Q96SW2+Q9UKT9); assay: Western-blot assay of substrate protein degradation in hPBMCs, IKZF3; format: cell-based; settings: 24 hours of compound treatment, compounds tested at 50 nM and 500 nM (concentration of the table not stated)
# T4 construct: endogenous in cells; host or cells: hPBMCs (Milecell Biotechnologies)
# CCRF-CEM = assay: Tumor cell proliferation inhibition (CellTiter-Meiluncell Luminescent Cell Viability Assay), CCRF-CEM; settings: Homo sapiens, 96 h, read-out: inhibitory activity (IC50, nM) against tumor cells proliferation, CCRF-CEM
# IKZF1 = target: T5, IKZF1 (Homo sapiens, UniProt Q13422+Q96SW2); assay: Western-blot assay of substrate protein degradation in hPBMCs, IKZF1; format: cell-based; settings: 24 hours of compound treatment, compounds tested at 50 nM and 500 nM (concentration of the table not stated)
# T5 construct: endogenous in cells; host or cells: hPBMCs (Milecell Biotechnologies)
# WEE1 = target: T6, WEE1 (Homo sapiens, UniProt P30291+Q96SW2); assay: Western-blot assay of substrate protein degradation in hPBMCs, WEE1; format: cell-based; settings: 24 hours of compound treatment, compounds tested at 50 nM and 500 nM (concentration of the table not stated)
# T6 construct: endogenous in cells; host or cells: hPBMCs (Milecell Biotechnologies)
# CK1α = target: T7, CK1α (Homo sapiens, UniProt P48729+Q96SW2); assay: Western-blot assay of substrate protein degradation in hPBMCs, CK1α; format: cell-based; settings: 24 hours of compound treatment, compounds tested at 50 nM and 500 nM (concentration of the table not stated)
# T7 construct: endogenous in cells; host or cells: hPBMCs (Milecell Biotechnologies)
# [2] = tested on: Human acute T lymphocytic leukemia cells (Molt-4); assay: Tumor cell proliferation inhibition (CellTiter-Meiluncell Luminescent Cell Viability Assay), Molt-4; settings: MOLT-4, 96 h, read-out: inhibitory activity (IC50, nM) against tumor cells proliferation, Molt 4
# MM.1R = assay: Tumor cell proliferation inhibition (CellTiter-Meiluncell Luminescent Cell Viability Assay), MM.1R; settings: Homo sapiens, 96 h, read-out: inhibitory activity (IC50, nM) against tumor cells proliferation, MM.1R
# Procedure: as §1, §2, §3
# CAL-62 = assay: Tumor cell proliferation inhibition (CellTiter-Meiluncell Luminescent Cell Viability Assay), CAL-62; settings: Homo sapiens, CAL-62, 96 h, read-out: inhibitory activity (IC50, nM) against tumor cells proliferation, CAL-62
# Procedure: as §1, §2, §3
# NCI-H1975 = assay: Tumor cell proliferation inhibition (CellTiter-Meiluncell Luminescent Cell Viability Assay), NCI-H1975; settings: Homo sapiens, NCI-H1975, 96 h, read-out: inhibitory activity (IC50, nM) against tumor cells proliferation, H1975
# Procedure: as §1, §2, §3
# [3] = tested on: Human breast cancer cells (MDA-MB-231); assay: Tumor cell proliferation inhibition (CellTiter-Meiluncell Luminescent Cell Viability Assay), MDA-MB-231; settings: MDA-MB-231, 96 h, read-out: inhibitory activity (IC50, nM) against tumor cells proliferation, MDA-MB-231
# T2 sequence (Q96SW2 whole entry): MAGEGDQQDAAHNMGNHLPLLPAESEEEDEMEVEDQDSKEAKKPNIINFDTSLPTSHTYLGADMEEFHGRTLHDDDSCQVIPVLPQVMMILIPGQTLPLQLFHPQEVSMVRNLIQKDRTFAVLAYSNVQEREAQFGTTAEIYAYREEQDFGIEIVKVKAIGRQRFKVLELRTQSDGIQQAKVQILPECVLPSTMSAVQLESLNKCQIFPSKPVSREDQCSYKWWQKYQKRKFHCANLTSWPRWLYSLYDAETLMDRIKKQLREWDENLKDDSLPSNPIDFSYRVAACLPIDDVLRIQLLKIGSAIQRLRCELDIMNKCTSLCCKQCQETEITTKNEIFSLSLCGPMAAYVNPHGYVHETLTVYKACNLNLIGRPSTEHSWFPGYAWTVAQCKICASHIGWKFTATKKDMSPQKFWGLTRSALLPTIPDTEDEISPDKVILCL
# T1 sequence (P15170 whole entry): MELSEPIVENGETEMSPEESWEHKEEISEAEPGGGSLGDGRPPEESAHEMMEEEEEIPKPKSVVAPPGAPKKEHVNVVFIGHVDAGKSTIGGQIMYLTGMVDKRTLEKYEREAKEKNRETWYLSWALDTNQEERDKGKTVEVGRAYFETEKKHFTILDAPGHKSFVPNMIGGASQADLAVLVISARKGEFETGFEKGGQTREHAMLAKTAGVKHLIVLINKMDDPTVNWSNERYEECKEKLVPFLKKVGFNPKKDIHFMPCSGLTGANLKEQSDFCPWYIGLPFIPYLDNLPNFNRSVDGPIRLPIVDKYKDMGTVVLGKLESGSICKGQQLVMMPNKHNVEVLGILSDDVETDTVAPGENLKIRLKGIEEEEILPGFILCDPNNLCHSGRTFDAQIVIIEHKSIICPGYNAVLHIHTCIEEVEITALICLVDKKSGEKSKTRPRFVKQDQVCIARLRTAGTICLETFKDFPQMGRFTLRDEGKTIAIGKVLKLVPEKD
# T1 sequence (Q96SW2 whole entry): as the sequence (Q96SW2 whole entry) above
# T1 sequence (Q16531 whole entry partner): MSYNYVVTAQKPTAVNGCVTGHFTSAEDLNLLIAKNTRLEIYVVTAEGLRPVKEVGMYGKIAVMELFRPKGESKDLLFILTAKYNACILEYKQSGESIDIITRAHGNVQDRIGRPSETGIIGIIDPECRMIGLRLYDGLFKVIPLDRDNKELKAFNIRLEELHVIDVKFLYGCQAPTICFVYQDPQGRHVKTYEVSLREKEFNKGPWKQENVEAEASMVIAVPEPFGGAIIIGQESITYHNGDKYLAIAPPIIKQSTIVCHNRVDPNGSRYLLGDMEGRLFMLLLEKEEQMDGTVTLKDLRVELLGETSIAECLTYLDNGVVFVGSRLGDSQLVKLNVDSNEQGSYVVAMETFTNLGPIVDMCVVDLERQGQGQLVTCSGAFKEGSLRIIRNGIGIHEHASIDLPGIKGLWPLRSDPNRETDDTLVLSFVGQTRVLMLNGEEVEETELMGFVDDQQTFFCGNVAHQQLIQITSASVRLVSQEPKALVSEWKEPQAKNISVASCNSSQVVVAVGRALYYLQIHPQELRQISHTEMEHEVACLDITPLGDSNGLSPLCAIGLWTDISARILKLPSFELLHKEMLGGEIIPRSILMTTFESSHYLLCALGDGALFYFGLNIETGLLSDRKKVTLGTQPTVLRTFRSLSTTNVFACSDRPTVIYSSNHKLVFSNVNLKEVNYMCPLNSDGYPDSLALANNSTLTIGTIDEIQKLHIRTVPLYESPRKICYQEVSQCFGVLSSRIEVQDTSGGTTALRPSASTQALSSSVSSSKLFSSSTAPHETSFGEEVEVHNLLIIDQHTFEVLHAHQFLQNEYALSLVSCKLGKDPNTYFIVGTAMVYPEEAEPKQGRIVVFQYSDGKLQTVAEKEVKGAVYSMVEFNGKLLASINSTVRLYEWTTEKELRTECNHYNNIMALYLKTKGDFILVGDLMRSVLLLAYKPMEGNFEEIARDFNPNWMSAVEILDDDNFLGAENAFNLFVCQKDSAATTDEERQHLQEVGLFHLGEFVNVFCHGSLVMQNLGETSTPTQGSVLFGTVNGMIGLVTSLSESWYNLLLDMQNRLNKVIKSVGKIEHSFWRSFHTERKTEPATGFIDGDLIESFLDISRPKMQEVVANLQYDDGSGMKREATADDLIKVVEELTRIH
# T7 sequence (P48729 whole entry): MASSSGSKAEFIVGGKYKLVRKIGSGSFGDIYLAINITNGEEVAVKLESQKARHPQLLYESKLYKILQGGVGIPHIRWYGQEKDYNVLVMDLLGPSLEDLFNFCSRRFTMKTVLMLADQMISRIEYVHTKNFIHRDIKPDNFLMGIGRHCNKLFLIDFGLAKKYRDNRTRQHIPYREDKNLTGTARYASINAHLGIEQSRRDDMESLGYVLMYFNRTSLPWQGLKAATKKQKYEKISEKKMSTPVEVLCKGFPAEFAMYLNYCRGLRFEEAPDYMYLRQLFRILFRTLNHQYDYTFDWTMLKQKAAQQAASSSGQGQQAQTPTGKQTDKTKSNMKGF
# T7 sequence (Q96SW2 whole entry): as the sequence (Q96SW2 whole entry) above
# T7 sequence (Q16531 whole entry partner): as the sequence (Q16531 whole entry partner) above
# T6 sequence (P30291 whole entry): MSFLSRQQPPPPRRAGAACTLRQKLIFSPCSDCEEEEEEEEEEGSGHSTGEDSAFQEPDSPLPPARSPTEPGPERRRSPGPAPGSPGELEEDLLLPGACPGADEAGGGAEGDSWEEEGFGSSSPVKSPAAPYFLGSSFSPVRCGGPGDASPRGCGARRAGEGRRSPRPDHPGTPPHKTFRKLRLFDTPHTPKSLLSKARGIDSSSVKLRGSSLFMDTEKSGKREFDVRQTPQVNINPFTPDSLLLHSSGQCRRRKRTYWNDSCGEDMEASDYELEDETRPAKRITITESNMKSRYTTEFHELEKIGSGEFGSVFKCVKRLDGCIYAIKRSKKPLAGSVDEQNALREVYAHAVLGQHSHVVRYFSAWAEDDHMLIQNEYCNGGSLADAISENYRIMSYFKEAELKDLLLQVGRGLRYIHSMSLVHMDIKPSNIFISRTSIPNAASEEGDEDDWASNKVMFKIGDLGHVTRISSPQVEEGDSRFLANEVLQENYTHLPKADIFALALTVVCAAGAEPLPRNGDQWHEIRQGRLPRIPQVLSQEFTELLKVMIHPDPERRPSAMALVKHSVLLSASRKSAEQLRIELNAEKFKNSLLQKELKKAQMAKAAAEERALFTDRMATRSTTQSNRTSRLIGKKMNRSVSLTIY
# T6 sequence (Q96SW2 whole entry): as the sequence (Q96SW2 whole entry) above
# T6 sequence (Q16531 whole entry partner): as the sequence (Q16531 whole entry partner) above
# T5 sequence (Q13422 whole entry): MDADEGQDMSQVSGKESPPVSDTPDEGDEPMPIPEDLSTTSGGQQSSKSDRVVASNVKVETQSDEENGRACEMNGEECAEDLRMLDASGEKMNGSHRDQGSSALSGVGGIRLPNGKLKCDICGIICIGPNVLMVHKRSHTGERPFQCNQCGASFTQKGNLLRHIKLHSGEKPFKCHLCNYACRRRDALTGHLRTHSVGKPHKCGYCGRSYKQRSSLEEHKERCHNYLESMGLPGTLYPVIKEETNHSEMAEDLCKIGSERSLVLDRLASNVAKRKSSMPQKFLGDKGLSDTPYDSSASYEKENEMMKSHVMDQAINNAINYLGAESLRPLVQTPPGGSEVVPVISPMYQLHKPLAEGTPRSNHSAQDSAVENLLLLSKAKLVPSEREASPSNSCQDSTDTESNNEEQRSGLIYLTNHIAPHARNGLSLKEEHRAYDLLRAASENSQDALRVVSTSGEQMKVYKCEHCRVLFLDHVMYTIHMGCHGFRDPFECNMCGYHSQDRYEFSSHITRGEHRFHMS
# T5 sequence (Q96SW2 whole entry): as the sequence (Q96SW2 whole entry) above
# T5 sequence (Q16531 whole entry partner): as the sequence (Q16531 whole entry partner) above
# T3 sequence (Q9UKS7 whole entry): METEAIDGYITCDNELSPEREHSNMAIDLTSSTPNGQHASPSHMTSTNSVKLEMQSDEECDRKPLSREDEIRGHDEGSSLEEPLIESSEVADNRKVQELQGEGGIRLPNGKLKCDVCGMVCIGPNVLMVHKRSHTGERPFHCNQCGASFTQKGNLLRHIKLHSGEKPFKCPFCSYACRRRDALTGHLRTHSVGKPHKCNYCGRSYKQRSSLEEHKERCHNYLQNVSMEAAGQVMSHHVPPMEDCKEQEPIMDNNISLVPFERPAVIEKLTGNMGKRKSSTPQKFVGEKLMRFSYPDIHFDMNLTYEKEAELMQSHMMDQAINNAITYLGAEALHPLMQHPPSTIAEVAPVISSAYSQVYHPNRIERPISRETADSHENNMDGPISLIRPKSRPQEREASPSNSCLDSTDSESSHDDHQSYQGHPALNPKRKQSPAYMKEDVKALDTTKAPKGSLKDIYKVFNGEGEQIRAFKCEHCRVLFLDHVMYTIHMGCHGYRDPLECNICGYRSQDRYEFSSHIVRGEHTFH
# T3 sequence (Q96SW2 whole entry): as the sequence (Q96SW2 whole entry) above
# T3 sequence (Q16531 whole entry partner): as the sequence (Q16531 whole entry partner) above
Structure (SMILES),IC50 (Jurkat),GSPT1 substrate protein remaining % (GSPT1),IC50 [1],IKZF2 substrate protein remaining % (IKZF2),IKZF3 substrate protein remaining % (IKZF3),IC50 (CCRF-CEM),IKZF 1 substrate protein remaining % (IKZF1),Weel substrate protein remaining % (WEE1),CK1a substrate protein remaining % (CK1α),IC50 [2],IC50 (MM.1R),IC50 (CAL-62),IC50 (NCI-H1975),IC50 [3]
"COc1ccc(N2CCN(Cc3ccc4c(c3)CN(C3CCC(=O)NC3=O)C4=O)CC2)cc1 (centres unmarked) [GT-04447, 3-(5-((4-(4-methoxyphenyl)piperazin-1-yl)methyl)-1-oxoisoindolin-2-yl)piperidine-2,6-dione]",100 to 500 nM,A (0% ≤ substrate protein remaining % ≤ 80%),1000 to 1500 nM,A (0% ≤ substrate protein remaining % ≤ 80%),A (0% ≤ substrate protein remaining % ≤ 80%),100 to 500 nM,A (0% ≤ substrate protein remaining % ≤ 80%),B (80%< substrate protein remaining %≤ 100%),B (80%< substrate protein remaining %≤ 100%),100 to 500 nM,100 to 500 nM,,,
"O=C1CCC(N2Cc3c(ccc(CN4CCN(c5cccc(Cl)c5Cl)CC4)c3F)C2=O)C(=O)N1 (centres unmarked) [GT-04526, 3-(5-((4-(2,3-dichlorophenyl)piperazin-1-yl)methyl)-4-fluoro-1-oxoisoindolin-2-yl)piperidine-2,6-dione]",,A (0% ≤ substrate protein remaining % ≤ 80%),500 to 1000 nM,A (0% ≤ substrate protein remaining % ≤ 80%),A (0% ≤ substrate protein remaining % ≤ 80%),,A (0% ≤ substrate protein remaining % ≤ 80%),A (0% ≤ substrate protein remaining % ≤ 80%),A (0% ≤ substrate protein remaining % ≤ 80%),1 to 5 nM,1 to 5 nM,5 to 10 nM,10 to 50 nM,10 to 50 nM
"O=C1CCC(N2Cc3cc(CN4CCN(c5ccc(F)c(F)c5)CC4)ccc3C2=O)C(=O)N1 (centres unmarked) [GT-04529, 3-(5-((4-(3,4-difluorophenyl)piperazin-1-yl)methyl)-1-oxoisoindolin-2-yl)piperidine-2,6-dione]",10 to 50 nM,A (0% ≤ substrate protein remaining % ≤ 80%),1500 to 1900 nM,A (0% ≤ substrate protein remaining % ≤ 80%),A (0% ≤ substrate protein remaining % ≤ 80%),,A (0% ≤ substrate protein remaining % ≤ 80%),A (0% ≤ substrate protein remaining % ≤ 80%),A (0% ≤ substrate protein remaining % ≤ 80%),10 to 50 nM,50 to 100 nM,100 to 500 nM,,
"O=C1CCC(N2Cc3cc(CN4CCN(c5nccc(Cl)c5Cl)CC4)ccc3C2=O)C(=O)N1 (centres unmarked) [GT-04532, 3-(5-((4-(3,4-dichloropyridin-2-yl)piperazin-1-yl)methyl)-1-oxoisoindolin-2-yl)piperidine-2,6-dione]",10 to 50 nM,A (0% ≤ substrate protein remaining % ≤ 80%),500 to 1000 nM,A (0% ≤ substrate protein remaining % ≤ 80%),A (0% ≤ substrate protein remaining % ≤ 80%),,A (0% ≤ substrate protein remaining % ≤ 80%),A (0% ≤ substrate protein remaining % ≤ 80%),A (0% ≤ substrate protein remaining % ≤ 80%),10 to 50 nM,10 to 50 nM,10 to 50 nM,,
"O=C1CCC(N2Cc3cc(CN4CCN(c5cncc(Cl)c5Cl)CC4)ccc3C2=O)C(=O)N1 (centres unmarked) [GT-04538, 3-(5-((4-(4,5-dichloropyridin-3-yl)piperazin-1-yl)methyl)-1-oxoisoindolin-2-yl)piperidine-2,6-dione]",50 to 100 nM,A (0% ≤ substrate protein remaining % ≤ 80%),< 500 nM,A (0% ≤ substrate protein remaining % ≤ 80%),A (0% ≤ substrate protein remaining % ≤ 80%),,A (0% ≤ substrate protein remaining % ≤ 80%),A (0% ≤ substrate protein remaining % ≤ 80%),A (0% ≤ substrate protein remaining % ≤ 80%),50 to 100 nM,100 to 500 nM,100 to 500 nM,,
"O=C1CCC(N2Cc3cc(CN4CCN(c5cc(F)ccc5F)CC4)ccc3C2=O)C(=O)N1 (centres unmarked) [GT-04539, 3-(5-((4-(2,5-difluorophenyl)piperazin-1-yl)methyl)-1-oxoisoindolin-2-yl)piperidine-2,6-dione]",10 to 50 nM,A (0% ≤ substrate protein remaining % ≤ 80%),500 to 1000 nM,A (0% ≤ substrate protein remaining % ≤ 80%),A (0% ≤ substrate protein remaining % ≤ 80%),,A (0% ≤ substrate protein remaining % ≤ 80%),A (0% ≤ substrate protein remaining % ≤ 80%),A (0% ≤ substrate protein remaining % ≤ 80%),10 to 50 nM,10 to 50 nM,50 to 100 nM,,
"O=C1CCC(N2Cc3cc(CN4CCN(c5c(F)cccc5F)CC4)ccc3C2=O)C(=O)N1 (centres unmarked) [GT-04540, 3-(5-((4-(2,6-difluorophenyl)piperazin-1-yl)methyl)-1-oxoisoindolin-2-yl)piperidine-2,6-dione]",50 to 100 nM,A (0% ≤ substrate protein remaining % ≤ 80%),500 to 1000 nM,A (0% ≤ substrate protein remaining % ≤ 80%),A (0% ≤ substrate protein remaining % ≤ 80%),,A (0% ≤ substrate protein remaining % ≤ 80%),A (0% ≤ substrate protein remaining % ≤ 80%),B (80%< substrate protein remaining %≤ 100%),50 to 100 nM,100 to 500 nM,100 to 500 nM,,
"Cc1ccc(N2CCN(Cc3ccc4c(c3)CN(C3CCC(=O)NC3=O)C4=O)CC2)s1 (centres unmarked) [GT-04546, 3-(5-((4-(5-methylthiophen-2-yl)piperazin-1-yl)methyl)-1-oxoisoindolin-2-yl)piperidine-2,6-dione]",50 to 100 nM,A (0% ≤ substrate protein remaining % ≤ 80%),500 to 1000 nM,A (0% ≤ substrate protein remaining % ≤ 80%),A (0% ≤ substrate protein remaining % ≤ 80%),,A (0% ≤ substrate protein remaining % ≤ 80%),A (0% ≤ substrate protein remaining % ≤ 80%),A (0% ≤ substrate protein remaining % ≤ 80%),100 to 500 nM,100 to 500 nM,10 to 50 nM,,
"Cc1cscc1N1CCN(Cc2ccc3c(c2)CN(C2CCC(=O)NC2=O)C3=O)CC1 (centres unmarked) [GT-04548, 3-(5-((4-(4-methylthiophen-3-yl)piperazin-1-yl)methyl)-1-oxoisoindolin-2-yl)piperidine-2,6-dione]",10 to 50 nM,A (0% ≤ substrate protein remaining % ≤ 80%),500 to 1000 nM,A (0% ≤ substrate protein remaining % ≤ 80%),A (0% ≤ substrate protein remaining % ≤ 80%),,A (0% ≤ substrate protein remaining % ≤ 80%),A (0% ≤ substrate protein remaining % ≤ 80%),A (0% ≤ substrate protein remaining % ≤ 80%),10 to 50 nM,10 to 50 nM,,500 to 1000 nM,500 to 1000 nM
